These results are taken from BindingDB's records for patent US20240109915 (Pfizer, 2024).

Each structure is given as a SMILES string.

In the assay the target is Acetyl-CoA carboxylase 1 (Homo sapiens, UniProt Q13085). As to the kind of experiment: Inhibition of the Activity of ACC1. How it is done: The direct inhibition of ACC1 for the compounds of the present invention was determined using preparations of recombinant human ACC1 (rhACC1) (SEQ ID NO. 1). Preparation of rhACC1: Two liters of SF9 cells, infected with recombinant baculovirus containing full length human ACC1 cDNA, were suspended in ice-cold lysis buffer (25 mM Tris, pH 7.5; 150 mM NaCl; 10% glycerol; 5 mM imidazole (EMD Bioscience; Gibbstown, NJ); 2 mM TCEP (BioVectra; Charlottetown, Canada); Benzonase nuclease (10000 U/100 g cell paste; Novagen; Madison, WI); EDTA-free protease inhibitor cocktail (1 tab/50 ml; Roche Diagnostics; Mannheim, Germany). Cells were lysed by 3 cycles of freeze-thaw and centrifuged at 40,000×g for 40 minutes (4° C.). Supernatant was directly loaded onto a HisTrap FF crude column (GE Healthcare; Piscataway, NJ) and eluted with an imidazole gradient up to 0.5 M over 20 column volumes (CV). ACC1-containing fractions were pooled and diluted 1:5 with 25 mM Tris, pH 7.5, 2 mM TCEP, 10% glycerol and direct loaded onto a CaptoQ (GE Healthcare) column and eluted with an NaCl gradient up to 1 M over 20 CV's. Phosphate groups were removed from purified ACC1 by incubation with lambda phosphatase (100 U/10 μM target protein; New England Biolabs; Beverly, MA) for 14 hours at 4° C.; okadaic acid was added (1 μM final concentration; Roche Diagnostics) to inhibit the phosphatase. […]

For orientation: IC50 means the concentration that inhibits the measured activity by half. A high value points to lower potency. For the molecule `Cn1ncc2c(Cl)cc(C(=O)N3CCC4(CC3)CC(=O)c3nc(C(C)(C)C)sc3C4)cc21` [US20240109915, Example 73], inhibition was half-maximal at 22.9 nM (IC50).

In the case of `Cc1nn(C)c2c(Cl)cc(C(=O)N3CCC4(CC3)CC(=O)c3nc(C(C)(C)C)sc3C4)cc12` [US20240109915, Example 84], the IC50 turned out to be 92.6 nM.
